Source: DBAASP
≈ marks a conversion by molar mass, not a printed value. One block for each compound: values may come before it.

Assays:
Test in all cases: ≥ marks a high value that may be exact or a test limit, other limits are often not marked, values filed in µg/mL are converted to µM
[1] = tested on: Pseudomonas aeruginosa ATCC 9027
[2] = tested on: Staphylococcus aureus ATCC 6538
[3] = tested on: Candida albicans ATCC 90028
[4] = tested on: Escherichia coli ATCC 25922
[5] = tested on: Pseudomonas aeruginosa ATCC 27853
[6] = tested on: Staphylococcus aureus ATCC 29213
[7] = tested on: Bacillus subtilis ATCC 6633
[8] = tested on: Staphylococcus aureus ATCC 2592
[9] = tested on: Enterococcus faecalis ATCC 29212
[10] = tested on: Bacillus subtilis
[11] = tested on: Candida albicans ATCC 2002
[12] = tested on: Staphylococcus aureus ATCC 25923
[13] = tested on: Pseudomonas aeruginosa PAO1
[14] = tested on: Staphylococcus aureus USA 300
[15] = tested on: Klebsiella pneumoniae
[16] = tested on: Salmonella enterica subsp. enterica serovar Typhimurium ATCC 14028

Structure (SMILES): CC(C)C[C@H](NC(=O)[C@H](CCCCN)NC(=O)[C@H](CC(C)C)NC(=O)[C@H](CCCCN)NC(=O)[C@H](CC(C)C)NC(=O)[C@H](C)NC(=O)[C@H](CC(C)C)NC(=O)[C@H](C)NC(=O)[C@H](CC(C)C)NC(=O)[C@H](CC(C)C)NC(=O)[C@H](CCCCN)NC(=O)[C@H](C)NC(=O)[C@@H](N)Cc1ccccc1)C(N)=O [FAKLLALALKLKL]
MIC [1]: > 139 µM
MIC [2]: 6.94 µM (≈ 9.99 µg/mL)

Structure (SMILES): CC[C@H](C)[C@H](NC(=O)CNC(=O)[C@H](C)NC(=O)[C@@H](NC(=O)[C@H](CC(C)C)NC(=O)CNC(=O)[C@@H]1CCCN1C(=O)[C@H](CC(C)C)NC(=O)[C@@H](N)Cc1ccccc1)[C@@H](C)CC)C(=O)N[C@@H](C)C(=O)N[C@@H](CCCCN)C(=O)N[C@@H](CCSC)C(=O)N[C@@H](CC(C)C)C(N)=O [FLPGLIAGIAKML]
MIC [7]: 18.6 µM (≈ 25 µg/mL)
MIC [8]: 9.3 µM (≈ 12.5 µg/mL)

Structure (SMILES): CC(C)C[C@H](NC(=O)[C@H](CCCCN)NC(=O)[C@H](CCCCN)NC(=O)[C@H](CC(C)C)NC(=O)[C@H](C)NC(=O)[C@H](CCCCN)NC(=O)[C@H](CC(C)C)NC(=O)[C@H](C)NC(=O)[C@H](CCCCN)NC(=O)[C@H](CCCCN)NC(=O)[C@H](C)NC(=O)[C@@H](N)Cc1ccccc1)C(N)=O [FAKKALKALKKL]
MIC [1]: 73.6 µM (≈ 99.9 µg/mL)
MIC [2]: 147 µM (≈ 200 µg/mL)

Structure (SMILES): CC(C)C[C@H](NC(=O)[C@H](CCCCN)NC(=O)[C@H](C)NC(=O)[C@H](CC(C)C)NC(=O)[C@H](CCCCN)NC(=O)[C@H](CC(C)C)NC(=O)[C@H](C)NC(=O)[C@H](CC(C)C)NC(=O)[C@H](CCCCN)NC(=O)[C@H](C)NC(=O)[C@H](CC(C)C)NC(=O)[C@H](CCCCN)NC(=O)[C@H](CCCCN)NC(=O)[C@H](C)NC(=O)[C@@H](N)Cc1ccccc1)C(N)=O [FAKKLAKLALKLAKL]
MIC [1]: 3.02 µM (≈ 5 µg/mL)
MIC [2]: 3.02 µM (≈ 5 µg/mL)

Structure (SMILES): CC[C@H](C)[C@H](NC(=O)[C@H](CCCCN)NC(=O)[C@H](CC(N)=O)NC(=O)[C@H](CC(C)C)NC(=O)[C@@H](NC(=O)[C@@H](NC(=O)[C@@H](NC(=O)[C@H](C)NC(=O)[C@H](C)NC(=O)[C@H](CC(N)=O)NC(=O)[C@H](CCCCN)NC(=O)[C@H](CC(C)C)NC(=O)CNC(=O)[C@H](CCC(=O)O)NC(=O)[C@H](CCCCN)NC(=O)[C@@H](NC(=O)[C@H](CO)NC(=O)[C@H](CC(=O)O)NC(=O)[C@H](Cc1c[nH]c2ccccc12)NC(=O)[C@H](Cc1ccccc1)NC(=O)CN)C(C)C)C(C)C)[C@@H](C)O)[C@@H](C)CC)C(=O)N[C@@H](CCCCN)C(=O)N[C@H]1CSSC[C@@H](C(=O)N2CCC[C@H]2C(=O)N2CCC[C@H]2C(=O)N[C@@H](C)C(=O)O)NC(=O)[C@H](CCC(=O)O)NC(=O)[C@H](CO)NC(=O)[C@H]([C@@H](C)CC)NC(=O)[C@H](CCCCN)NC1=O [GFWDSVKEGLKNAAVTILNKIKCKISECPPA]
MIC [10]: 29.8 µM (≈ 99.9 µg/mL)
MIC [11]: 3.72 µM (≈ 12.5 µg/mL)
MIC [4]: 14.9 µM (≈ 50 µg/mL)
MIC [8]: 14.9 µM (≈ 50 µg/mL)

Structure (SMILES): CC(C)C[C@H](NC(=O)[C@H](C)NC(=O)[C@H](CCCCN)NC(=O)[C@H](CCCCN)NC(=O)[C@H](CC(C)C)NC(=O)[C@H](C)NC(=O)[C@H](CCCCN)NC(=O)[C@H](CCCCN)NC(=O)[C@H](CC(C)C)NC(=O)[C@H](CCCCN)NC(=O)[C@H](CCCCN)NC(=O)[C@H](CC(C)C)NC(=O)[C@H](C)NC(=O)[C@H](CCCCN)NC(=O)[C@H](CCCCN)NC(=O)[C@H](CC(C)C)NC(=O)[C@H](C)NC(=O)[C@H](CCCCN)NC(=O)[C@H](CC(C)C)NC(=O)[C@H](C)NC(=O)[C@H](CC(C)C)NC(=O)[C@H](C)NC(=O)[C@@H](N)Cc1ccccc1)C(N)=O [FALALKALKKALKKLKKALKKAL]
MIC [1]: 39.4 µM (≈ 100 µg/mL)
MIC [2]: 9.85 µM (≈ 25 µg/mL)

Structure (SMILES): CC(C)C[C@H](NC(=O)[C@H](C)NC(=O)[C@H](CCCCN)NC(=O)[C@H](CCCCN)NC(=O)[C@H](C)NC(=O)[C@H](CC(C)C)NC(=O)[C@H](CCCCN)NC(=O)[C@H](C)NC(=O)[C@H](CC(C)C)NC(=O)[C@H](CC(C)C)NC(=O)[C@H](CCCCN)NC(=O)[C@H](C)NC(=O)[C@@H](N)Cc1ccccc1)C(N)=O [FAKLLAKLAKKAL]
MIC [1]: 35.3 µM (≈ 50 µg/mL)
MIC [2]: 3.53 µM (≈ 5 µg/mL)

Structure (SMILES): CC(C)C[C@H](NC(=O)[C@H](CC(C)C)NC(=O)[C@H](CCCCN)NC(=O)CNC(=O)[C@H](C)NC(=O)[C@H](C)NC(=O)[C@H](CCCCN)NC(=O)[C@H](C)NC(=O)[C@H](C)NC(=O)[C@H](CO)NC(=O)[C@H](CC(C)C)NC(=O)[C@H](CC(C)C)NC(=O)CN)C(N)=O [GLLSAAKAAGKLL]
MIC [4]: > 25 µM
MIC [13]: > 25 µM
MIC [14]: 25 µM (≈ 30.3 µg/mL)

Structure (SMILES): CC(C)C[C@H](NC(=O)[C@H](CC(C)C)NC(=O)[C@H](C)NC(=O)[C@H](CCCCN)NC(=O)[C@H](C)NC(=O)[C@H](CC(C)C)NC(=O)[C@H](CCCCN)NC(=O)[C@H](CCCCN)NC(=O)[C@H](C)NC(=O)[C@@H](N)Cc1ccccc1)C(N)=O [FAKKLAKALL]
MIC [1]: 90.7 µM (≈ 99.9 µg/mL)
MIC [2]: 90.7 µM (≈ 99.9 µg/mL)

Structure (SMILES): CC[C@H](C)[C@H](NC(=O)CN)C(=O)NCC(=O)N[C@@H](CCCCN)C(=O)N[C@@H](Cc1cnc[nH]1)C(=O)N[C@H](C(=O)NCC(=O)N[C@@H](CCCCN)C(=O)N[C@@H](C)C(=O)N[C@@H](CC(C)C)C(=O)N[C@@H](CCCCN)C(=O)NCC(=O)N[C@@H](CC(C)C)C(=O)N[C@@H](CCCCN)C(=O)NCC(=O)N[C@@H](CC(C)C)C(=O)N[C@@H](CC(C)C)C(=O)N[C@@H](CCCCN)C(=O)NCC(=O)N[C@@H](CC(C)C)C(=O)NCC(=O)N[C@@H](CCC(=O)O)C(=O)N[C@@H](CS)C(=O)O)C(C)C [GIGKHVGKALKGLKGLLKGLGEC]
MIC [4]: 0.707 µM (≈ 1.61 µg/mL)
MIC [15]: 1 µM (≈ 2.28 µg/mL)
MIC [5]: 2 µM (≈ 4.55 µg/mL)
MIC [16]: 1 µM (≈ 2.28 µg/mL)
MIC [12]: ≥ 128 µM

Other lines, results leading:

MIC [3]: ≥ 40 µM
MIC [4]: 40 µM (≈ 61.2 µg/mL)
MIC [5]: 40 µM (≈ 61.2 µg/mL)
MIC [6]: 40 µM (≈ 61.2 µg/mL)
Structure (SMILES): CC[C@H](C)[C@H](NC(=O)[C@H](CCCN=C(N)N)NC(=O)[C@@H](N)CCCCN)C(=O)N[C@H](C(=O)N[C@@H](CCC(N)=O)C(=O)N[C@@H](CCCN=C(N)N)C(=O)N[C@@H](C)C(=O)N[C@@H](CCCCN)C(=O)N[C@@H](CC(=O)O)C(=O)N[C@@H](Cc1ccccc1)C(=O)N[C@@H](CC(C)C)C(=O)N[C@@H](CCCN=C(N)N)C(=O)O)C(C)C [KRIVQRAKDFLR]

MIC [9]: 2.98 µM (≈ 4.8 µg/mL)
MIC [4]: 0.746 µM (≈ 1.2 µg/mL)
MIC [5]: 2.11 µM (≈ 3.39 µg/mL)
MIC [6]: 1.49 µM (≈ 2.4 µg/mL)
Structure (SMILES): CC[C@H](C)[C@H](NC(=O)[C@H](CCCCN)NC(=O)[C@H](CCCCN)NC(=O)[C@H](Cc1ccccc1)NC(=O)[C@H](CC(C)C)NC(=O)[C@H](CCCCN)NC(=O)[C@H](CCCCN)NC(=O)[C@@H](N)Cc1c[nH]c2ccccc12)C(=O)N[C@@H](CC(C)C)C(=O)N[C@@H](CCCCN)C(=O)N[C@@H](Cc1ccc(O)cc1)C(=O)N[C@@H](CC(C)C)C(N)=O [WKKLFKKILKYL]

MIC [10]: 1.61 µM (≈ 4.69 µg/mL)
MIC [11]: 0.201 µM (≈ 0.586 µg/mL)
MIC [4]: 0.803 µM (≈ 2.34 µg/mL)
MIC [12]: 2.41 µM (≈ 7.03 µg/mL)
Structure (SMILES): CC[C@H](C)[C@H](NC(=O)[C@H](C)NC(=O)[C@H](CCCN=C(N)N)NC(=O)[C@H](Cc1ccc(O)cc1)NC(=O)[C@H](CC(C)C)NC(=O)[C@H](CC(N)=O)NC(=O)[C@H](Cc1ccc(O)cc1)NC(=O)CNC(=O)[C@H](C)NC(=O)[C@@H](NC(=O)[C@@H](NC(=O)[C@@H](NC(=O)[C@H](CCCN=C(N)N)NC(=O)[C@@H](NC(=O)[C@@H](NC(=O)[C@@H](NC(=O)[C@@H]1CCCN1C(=O)[C@H](Cc1c[nH]c2ccccc12)NC(=O)[C@H](Cc1ccccc1)NC(=O)[C@H](CCCN=C(N)N)NC(=O)[C@H](CCCCN)NC(=O)[C@@H](NC(=O)[C@@H](N)CCCN=C(N)N)[C@@H](C)CC)C(C)C)C(C)C)[C@@H](C)CC)[C@@H](C)O)C(C)C)C(C)C)C(=O)N[C@@H](CCCCN)C(=O)O [RIKRFWPVVIRTVVAGYNLYRAIK]

MIC [3]: ≥ 40 µM
MIC [4]: 40 µM (≈ 59.5 µg/mL)
MIC [5]: 40 µM (≈ 59.5 µg/mL)
MIC [6]: 40 µM (≈ 59.5 µg/mL)
Structure (SMILES): CC[C@H](C)[C@H](NC(=O)[C@H](C)NC(=O)[C@@H](N)CCCCN)C(=O)N[C@H](C(=O)N[C@@H](CCC(N)=O)C(=O)N[C@@H](CCCN=C(N)N)C(=O)N[C@H](C(=O)N[C@@H](CCCCN)C(=O)N[C@@H](CC(=O)O)C(=O)N[C@@H](Cc1ccccc1)C(=O)N[C@@H](CC(C)C)C(=O)N[C@@H](CCCN=C(N)N)C(=O)O)[C@@H](C)CC)C(C)C [KAIVQRIKDFLR]

MIC [1]: 8.3 µM (≈ 15 µg/mL)
MIC [2]: 2.77 µM (≈ 5 µg/mL)
Structure (SMILES): CC(C)C[C@H](NC(=O)[C@H](C)NC(=O)[C@H](CC(C)C)NC(=O)[C@H](CCCCN)NC(=O)[C@H](C)NC(=O)[C@H](CC(C)C)NC(=O)[C@H](CCCCN)NC(=O)[C@H](CCCCN)NC(=O)[C@H](C)NC(=O)[C@H](CC(C)C)NC(=O)[C@H](CCCCN)NC(=O)[C@H](C)NC(=O)[C@H](CC(C)C)NC(=O)[C@H](CCCCN)NC(=O)[C@H](CCCCN)NC(=O)[C@H](C)NC(=O)[C@@H](N)C(C)C)C(N)=O [VAKKLAKLAKKLAKLAL]

MIC [4]: 25 µM (≈ 30.6 µg/mL)
MIC [13]: > 25 µM
MIC [14]: 12.5 µM (≈ 15.3 µg/mL)
Structure (SMILES): CC(C)C[C@H](NC(=O)[C@H](CC(C)C)NC(=O)[C@H](CCCCN)NC(=O)CNC(=O)[C@H](CC(C)C)NC(=O)[C@H](CC(C)C)NC(=O)[C@H](CO)NC(=O)[C@H](CC(C)C)NC(=O)[C@H](CO)NC(=O)[C@H](CC(C)C)NC(=O)[C@H](CC(C)C)NC(=O)CN)C(N)=O [GLLSLSLLGKLL]
